Laboratory results: article PMC4721062, “Oxadiazole-2-oxides may have other functional targets, in addition to SjTGR, through which they cause mortality in Schistosoma japonicum” (Parasites & Vectors, 2016)
Like-named read-outs stand apart in the source and are kept apart here.

How the values were obtained:
[1] = Cytotoxicity assay on Hela cells (MTT); type: cell-based; conditions: human
Description: Cytotoxicity assays were performed using Hela cells. Cells in the exponential growth phase were collected by centrifugation and a concentration of 4–5 × 10^4/mL was created. 100 μL of the cell suspension was added to each well of a 96-well plate and cultured overnight at 37 °C in a humid atmosphere with 5 % CO2. Oxadiazole-2-oxides (at 10, 20, 40, 80 and 160 μM) were added. Each concentration was assayed in triplicate, and control wells (no cells and no drugs) were assayed at the same time. The “no cell” control wells only contained RPMI 1640 medium, MTT, DMSO, and oxadiazole-2-oxides. The “no drug” control wells contained the Hela cells, RPMI 1640 medium, MTT and DMSO. The cells were cultured for 48 h at 37 °C in a humid atmosphere with 5 % CO2. Then, 20 μL of 5 mg/mL MTT was added to each well and the culture conditions were maintained for 4 h. After this point, the medium was removed and 150 μL DMSO was added into each well to dissolve any crystallisation. The value of absorbance at 570 nm of each well was measured (at 570 nm) with a microplate reader to assess the toxic effect of the oxadiazole-2-oxides on the vertebrate cells.

[2] = test system: adult S. japonicum in mice; assay: Treatment of infected mice at adult worm stage; type: in vivo, Schistosoma japonicum (ICR mice); conditions: for Number of eggs per gram of liver (Mean ± SD) / Number of worms (Mean ± SD) / Egg reduction rate / Worm reduction rate: mice, 10 mg/kg i.p. daily for 5 days from day 35 post-infection; for Number of eggs per gram of liver (Mean ± SD) / Number of worms (Mean ± SD): sacrificed day 42; for Egg reduction rate / Worm reduction rate: versus control
Description: (§1) The abdominal skin of each mouse (ICR, female, 22–24 g) was exposed to 20 S. japonica cercariae (as described above). The mice were intraperitoneally injected with 10 mg/kg oxadiazole-2-oxides daily for 5 days, beginning either 7 or 35 days post-infection. Control mice were treated with 10 mg/kg of the carrier medium. All mice were sacrificed 42 days post-infection. The worm burden of each mouse was confirmed by counting the number of worms observed from a portal vein perfusion. The mouse livers were digested overnight with 5 % potassium hydroxyl solution at 37 °C and the eggs in the liver tissue were counted under an inverted phase contrast microscope. The worm and egg reduction rates were calculated using the following formulas: Wormreductionrate%=meannumberofadultwormspermouseincontrolgroup−meannumberofadultwormspermouseinexperimentalgroup/meannumberofadultwormspermouseincontrolgroup. Eggreductionrate%=meannumberofeggspermouseincontrolgroup−meannumberofeggspermouseinexperimentalgroup/meannumberofeggspermouseincontrolgroup.

[3] = test system: juvenile S. japonicum in mice; assay: Treatment of infected mice at juvenile worm stage; type: in vivo, Schistosoma japonicum (ICR mice); conditions: 10 mg/kg i.p. daily for 5 days from day 7 post-infection; for Number of eggs per gram of liver (Mean ± SD) / Number of worms (Mean ± SD): sacrificed day 42; for Egg reduction rate / Worm reduction rate: versus control, 10 mg/kg
Description: as §1

juvenile S. japonicum = assay: microbe, parasite or virus in culture; type: cell-based; conditions: for mortality at 100 µM / killing at 2 µM / killing at 5 µM / killing at 50 µM / mortality at 50 µM: Schistosoma japonicum; for mortality at 100 µM / mortality at 50 µM: read-out: Mortality of juvenile worms; for killing at 2 µM / killing at 5 µM / killing at 50 µM / Killing activity 24hr / Killing activity 48hr / Killing activity 72hr: juvenile worms; for Killing activity 24hr / Killing activity 48hr / Killing activity 72hr: 10 μM
Outline: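 Juvenile S. japonicum, 20–30 tail-shed cercariae per well, were exposed to compounds at 2, 5, 10 and 50 μM in RPMI 1640 with 10% FBS and HEPES. Survival was scored microscopically at 24, 48 and 72 h, with death defined by disrupted internal structure or tegument or 1 min without motility. % D is dead/total, averaged over three experiments.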

S. mansoni = conditions: compared with 10 μM, 72 h data; cited from earlier work
[4] = 24 h, read-out: Killing activity 24hr
[5] = 48 h, read-out: Killing activity 48hr
[6] = 72 h, read-out: Killing activity 72hr

Row | Structure (SMILES) | viability at 72 h, 80 µM [1] [%] | Number of eggs per gram of liver (Mean ± SD) [2] | Number of worms (Mean ± SD) [2] | Number of eggs per gram of liver (Mean ± SD) [3] | Number of worms (Mean ± SD) [3] | Worm reduction rate [3] | killing at 2 µM (juvenile S. japonicum; [4]) [%] | killing at 2 µM (juvenile S. japonicum; [5]) [%] | killing at 2 µM (juvenile S. japonicum; [6]) [%] | killing at 5 µM (juvenile S. japonicum; [4]) [%] | killing at 5 µM (juvenile S. japonicum; [5]) [%] | killing at 5 µM (juvenile S. japonicum; [6]) [%] | killing at 50 µM (juvenile S. japonicum; [4]) [%] | killing at 50 µM (juvenile S. japonicum; [5]) [%] | killing at 50 µM (juvenile S. japonicum; [6]) [%] | Killing activity 24hr (juvenile S. japonicum; 24 h) [%D] | Killing activity 48hr (juvenile S. japonicum; 48 h) [%D] | Killing activity 72hr (juvenile S. japonicum; 72 h) [%D] | mortality at 50 µM (juvenile S. japonicum; 24 h) [%] | also measured
1 | COc1ccc(-c2no[n+]([O-])c2CO)cc1 [Compound 4a] | 91 | 7730.8 ± 1457.8 (P < 0.05^**) | 4.0 ± 2.5 (P > 0.05^**) | 4,258.9 ± 1,910.0 (P > 0.05^**) | 1.3 ± 0.8 (P > 0.05^**) | 87.7 (P < 0.01^*) % | 29.4 | 35.3 | 44.1 | 36.2 | 48.9 | 53.2 | 56.8 | 88.6 | 90.9 | 26.7 | 37.8 | 58.9 | – | Reduction in the female worms ([2]; mice treated at adult worm stage (data not shown)): 36.8%; Egg reduction rate ([2]; 10 mg/kg): 3.8 (P > 0.05^*) %; Worm reduction rate ([2]; 10 mg/kg): 66.7 (P < 0.01^*) %; Egg reduction rate [3]: 47.0 (P < 0.05^*) %; mortality at 100 µM (juvenile S. japonicum; 72 h): 90 ± 2.8%
2 | Cc1ccc(-c2no[n+]([O-])c2CO)cc1 [Compound 4b] | 96 | 7007.8 ± 2420.2 (P < 0.05^**) | 9.0 ± 3.8 (P < 0.05^**) | 8,669.2 ± 2,255.8 (P < 0.05^**) | 1.8 ± 1.5 (P > 0.05^**) | 83.1 (P < 0.01^*) % | 35.2 | 35.2 | 42.3 | 42.9 | 46.9 | 51 | 76.5 | 88.2 | 100 | 48.0 | 50.0 | 60.0 | > 70 | Egg reduction rate [2]: 12.8 (P > 0.05^*) %; Worm reduction rate [2]: 25.0 (P > 0.05^*) %; mortality at 100 µM (juvenile S. japonicum; 72 h): 100%
3 | COc1ccc(-c2no[n+]([O-])c2C#N)cc1 [Compound 7a] | – | – | – | – | – | – | 14.6 | 29.2 | 41.7 | 15.7 | 39.2 | 39.2 | 46.2 | 53.3 | 70 | 36.7 | 36.7 | 60.0 | – | Mortality in adult worms of S. mansoni (S. mansoni): 100.0%
4 | Cc1ccc(-c2no[n+]([O-])c2C#N)cc1 [Compound 7b] | – | – | – | – | – | – | 16 | 26.6 | 31.9 | 21.1 | 26.3 | 36.8 | 47.5 | 55.9 | 57.6 | 23.8 | 33.3 | 57.1 | – | Mortality in adult worms of S. mansoni (S. mansoni): 70.0%
5 | N#Cc1c(-c2ccc(OCCBr)cc2)no[n+]1[O-] [Compound 12] | – | – | – | – | – | – | 17.3 | 17.3 | 19.2 | 16.4 | 18.2 | 23.6 | 33.3 | 36.2 | 72.5 | 21.3 | 21.3 | 28.8 | < 30 | –
6 | N#Cc1c(-c2ccc(OCCCBr)cc2)no[n+]1[O-] [Compound 13] | 80 | 8201.4 ± 2066.0 (P < 0.05^**) | 8.6 ± 2.4 (P < 0.05^**) | 3,808.9 ± 1,288.9 (P > 0.05^**) | 1.7 ± 0.7 (P > 0.05^**) | 84.6 (P < 0.01^*) % | 13 | 13 | 13 | 14.2 | 15.5 | 15.5 | 23.3 | 29.9 | 41 | 19.0 | 19.0 | 20.3 | < 30 | Worm reduction rate [2]: 28.3 (P < 0.05^*) %; Egg reduction rate [3]: 52.6 (P < 0.05^*) %; mortality at 50 µM (juvenile S. japonicum; 72 h): 41 ± 6.3%
7 | N#Cc1c(-c2ccc(OCc3ccccc3)cc2)no[n+]1[O-] [Compound 19] | – | – | – | – | – | – | 15.1 | 15.1 | 17 | 12.5 | 19.2 | 28.8 | 82.5 | 92.8 | 100 | 43.8 | 50.0 | 65.0 | – | –
8 | C#CCOc1ccc(-c2no[n+]([O-])c2C#N)cc1 [Compound 20] | 87 | 10094.7 ± 1691.0 (P < 0.05^**) | 4.7 ± 1.1 (P > 0.05^**) | 7,767.5 ± 2,676.6 (P < 0.05^**) | 3.0 ± 0.9 (P < 0.05^**) | 69.5 (P < 0.01^*) % | 8.5 | 14.2 | 19.9 | 20 | 24 | 34 | 45.6 | 48.5 | 67.6 | 43.4 | 45.3 | 52.8 | – | Worm reduction rate [2]: 61.1 (P < 0.01^*) %; Egg reduction rate [3]: 3.3 (P > 0.05^*) %; mortality at 100 µM (juvenile S. japonicum; 72 h): 67.6 ± 4.5%
9 | N#Cc1c(-c2ccc(COc3ccccc3)cc2)no[n+]1[O-] [Compound 23] | – | – | – | – | – | – | 6 | 16.1 | 17.7 | 9 | 15 | 20 | 69.9 | 70.8 | 77 | 45.0 | 60.0 | 66.7 | > 70 | –
10 | N#Cc1c(-c2ccc(COc3ccc(C=O)cc3)cc2)no[n+]1[O-] [Compound 26] | – | – | – | – | – | – | 36.4 | 36.4 | 50.9 | 48.9 | 48.9 | 53.2 | 46.3 | 63.4 | 85.4 | 56.1 | 61.0 | 80.5 | – | –
11 | Cc1ccc2cccc(OCc3ccc(-c4no[n+]([O-])c4C#N)cc3)c2n1 [Compound 28] | – | – | – | – | – | – | 8.2 | 13.7 | 19.2 | 14.8 | 21.6 | 26.1 | 31.9 | 36.2 | 39.1 | 14.5 | 17.4 | 30.4 | < 30 | –
